This note sets out measurements from US8722849B2, “Polypeptides” (Novo Nordisk A/S, priority 2011, dated 2014).

Starred links: 1 amine or outer side, 2 acyl side, 3 side chain; linkers in the order of their positions; H or OH if unused. Positions of bridges follow the written chain, without caps; N, C: chain ends. Residues, ends and D or L forms follow the SMILES beside them. *: point of attachment. C20 diacid = O=C(O)CCCCCCCCCCCCCCCCCCC(=O)*; C18 diacid = O=C(O)CCCCCCCCCCCCCCCCC(=O)*; γGlu = O=C(O)[C@H](CCC(=O)[*:2])N[*:1] A value given as a limit tells only on which side of the number the result lay.

Broadly, the EC50 is the concentration giving half of the maximal effect.

For data set [1], the target named is T1, rat calcitonin (a) receptor (Rattus norvegicus, UniProt P32214).
T1 construct: expressed in transfected cells; host or cells: BHK tk'ts 13
T1 sequence (P32214 25-479 isoform P32214-2 limits assumed): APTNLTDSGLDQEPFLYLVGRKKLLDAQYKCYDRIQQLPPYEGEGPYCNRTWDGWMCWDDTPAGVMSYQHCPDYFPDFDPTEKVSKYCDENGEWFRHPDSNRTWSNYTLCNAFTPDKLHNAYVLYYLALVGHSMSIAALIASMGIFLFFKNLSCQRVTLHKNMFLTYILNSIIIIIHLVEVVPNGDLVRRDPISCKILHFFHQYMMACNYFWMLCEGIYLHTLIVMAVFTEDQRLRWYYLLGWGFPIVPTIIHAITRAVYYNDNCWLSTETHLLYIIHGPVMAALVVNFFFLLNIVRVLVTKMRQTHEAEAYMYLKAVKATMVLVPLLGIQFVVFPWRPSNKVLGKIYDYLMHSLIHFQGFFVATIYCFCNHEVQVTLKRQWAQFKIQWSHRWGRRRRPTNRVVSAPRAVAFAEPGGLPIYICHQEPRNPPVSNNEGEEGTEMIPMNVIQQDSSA
Put plainly: Assay (II)b functional cAMP FlashPlate assay, rat calcitonin receptor. As to conditions: Table 11; read-out: CTa receptor rat EC50. Format: cell-based. In a few lines:
(§1)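 cAMP accumulation in transiently transfected BHK tk'ts 13 cells, 100.000 cells/well, expressing rat calcitonin(a) receptor or its RAMP3 co-expression form (amylin 3(a)): 30 min stimulation with IBMX, 24 hours post-transfection. Readout by competition of cellular versus radiolabelled cAMP in FlashPlates, scintillation counted after 3 h.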

Data set [2] concerns the target T2, rat amylin 3(a) receptor (rat calcitonin(a) receptor + rat RAMP3) (Rattus norvegicus, UniProt P32214+Q9JJ73).
T2 construct: expressed in transfected cells; host or cells: BHK tk'ts 13
T2 sequence (P32214 25-479 isoform P32214-2 limits assumed): T1 sequence (P32214 25-479 isoform P32214-2 limits assumed)
T2 sequence (Q9JJ73 23-147 partner): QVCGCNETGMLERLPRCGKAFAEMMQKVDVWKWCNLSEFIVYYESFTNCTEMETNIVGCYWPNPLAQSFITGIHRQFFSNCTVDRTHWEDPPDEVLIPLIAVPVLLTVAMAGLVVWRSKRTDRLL
Put plainly: Assay (II)b functional cAMP FlashPlate assay, rat amylin receptor. As to conditions: Table 11. Format: cell-based. Summed up: as §1

Data set [3] is described as follows: Assay (III) ThT fibrillation assay for physical stability. In kind it is physicochemical. Summed up: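 Freshly prepared formulations, pH-adjusted, with 1 μM ThT; four or eight replicates incubated at 37 °C under 960 rpm orbital shaking. Fluorescence (ex 444/em 485 nm) read every 20 min; […]. Peptide concentration measured by RP-HPLC before and after the run.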

`CC[C@H](C)[C@H](NC(=O)[C@@H]1CCCN1C(=O)CNC(=O)[C@H](Cc1ccccc1)NC(=O)[C@H](CC(N)=O)NC(=O)[C@H](CC(N)=O)NC(=O)[C@H](CO)NC(=O)[C@H](CO)NC(=O)[C@H](Cc1c[nH]cn1)NC(=O)[C@H](Cc1c[nH]cn1)NC(=O)[C@H](CC(C)C)NC(=O)[C@H](Cc1ccccc1)NC(=O)[C@H](CCC(=O)O)NC(=O)[C@H](C)NC(=O)[C@H](CC(C)C)NC(=O)[C@H](CCCNC(=N)N)NC(=O)[C@H](CCC(N)=O)NC(=O)[C@@H](NC(=O)[C@H](C)NC(=O)[C@@H]1CSSC[C@H](NC(=O)[C@H](CCCCN)NC(=O)CC[C@H](NC(=O)CCCCCCCCCCCCCCCCC(=O)O)C(=O)O)C(=O)N[C@@H](CC(N)=O)C(=O)N[C@@H]([C@@H](C)O)C(=O)N[C@@H](C)C(=O)N[C@@H]([C@@H](C)O)C(=O)N1)[C@@H](C)O)C(=O)N[C@@H](CC(C)C)C(=O)N1CCC[C@H]1C(=O)N1CCC[C@H]1C(=O)N[C@H](C(=O)N[C@@H](CC(N)=O)C(=O)N[C@H](C(=O)NCC(=O)N[C@@H](CO)C(=O)N[C@@H](CC(N)=O)C(=O)N[C@H](C(=O)N[C@@H](Cc1ccc(O)cc1)C(N)=O)[C@@H](C)O)C(C)C)[C@@H](C)O` [Example 46, N-alpha-[(S)-4-Carboxy-4-(17-carboxyheptadecanoylamino)butyryl]-[Glu14,His17]-pramlintide] ({C18 diacid-γGlu}-KCNTATCATQRLAEFLHHSSNNFGPILPPTNVGSNTY-NH2; disulfide 2-7 (inferred); C-terminus assumed): the values for the concentration giving a half-maximal response (EC50) in data set [1] and in data set [2] were 0.433 nM and 0.122 nM, respectively. Besides, the “ThT pH 4.0 lag time” value in data set [3] (Table 8) and in data set [3] (ThT fibrillation assay) was 27.9 h in each case. In data set [3] (ThT fibrillation assay), the “ThT pH 4.0 lag time (h)” value is listed as 27.9 h.
With `CC[C@H](C)[C@H](NC(=O)[C@@H]1CCCN1C(=O)CNC(=O)[C@H](Cc1ccccc1)NC(=O)[C@H](CC(N)=O)NC(=O)[C@H](CC(N)=O)NC(=O)[C@H](CO)NC(=O)[C@H](CO)NC(=O)[C@H](Cc1c[nH]cn1)NC(=O)[C@H](CCCNC(=N)N)NC(=O)[C@H](CC(C)C)NC(=O)[C@H](Cc1ccccc1)NC(=O)[C@H](CCC(=O)O)NC(=O)[C@H](C)NC(=O)[C@H](CC(C)C)NC(=O)[C@H](CCCNC(=N)N)NC(=O)[C@H](CCC(N)=O)NC(=O)[C@@H](NC(=O)[C@H](C)NC(=O)[C@@H]1CSSC[C@H](NC(=O)[C@H](CCCCN)NC(=O)CC[C@H](NC(=O)CCCCCCCCCCCCCCCCCCC(=O)O)C(=O)O)C(=O)N[C@@H](CC(N)=O)C(=O)N[C@@H]([C@@H](C)O)C(=O)N[C@@H](C)C(=O)N[C@@H]([C@@H](C)O)C(=O)N1)[C@@H](C)O)C(=O)N[C@@H](CC(C)C)C(=O)N1CCC[C@H]1C(=O)N1CCC[C@H]1C(=O)N[C@H](C(=O)N[C@@H](CC(N)=O)C(=O)N[C@H](C(=O)NCC(=O)N[C@@H](CO)C(=O)N[C@@H](CC(N)=O)C(=O)N[C@H](C(=O)N1CCC[C@H]1C(N)=O)[C@@H](C)O)C(C)C)[C@@H](C)O` [Example 53, N-alpha-[(S)-4-Carboxy-4-(19-carboxynonadecanoylamino)butyryl]-[Glu14,Arg17,Pro37]-pramlintide], the EC50 in data set [1] turned out to be 0.287 nM; in data set [2], 0.348 nM. Also, the “ThT pH 4.0 lag time” value in data set [3] (Table 8), in data set [3] (Table 9) and in data set [3] (ThT fibrillation assay) was over 45 h throughout. Besides, the “ThT pH 4.0 lag time (h)” value in data set [3] (ThT fibrillation assay) is recorded as over 45 h.
As to `CC[C@H](C)[C@H](NC(=O)[C@@H]1CCCN1C(=O)CNC(=O)[C@H](Cc1ccccc1)NC(=O)[C@H](CC(N)=O)NC(=O)[C@H](CC(N)=O)NC(=O)[C@H](CO)NC(=O)[C@H](CO)NC(=O)[C@H](CCCNC(=N)N)NC(=O)[C@H](Cc1c[nH]cn1)NC(=O)[C@H](CC(C)C)NC(=O)[C@H](Cc1ccccc1)NC(=O)[C@H](CCC(=O)O)NC(=O)[C@H](C)NC(=O)[C@H](CC(C)C)NC(=O)[C@H](CCCNC(=N)N)NC(=O)[C@H](CCC(N)=O)NC(=O)[C@@H](NC(=O)[C@H](C)NC(=O)[C@@H]1CSSC[C@H](NC(=O)[C@H](Cc2c[nH]cn2)NC(=O)CC[C@H](NC(=O)CCCCCCCCCCCCCCCCCCC(=O)O)C(=O)O)C(=O)N[C@@H](CC(N)=O)C(=O)N[C@@H]([C@@H](C)O)C(=O)N[C@@H](C)C(=O)N[C@@H]([C@@H](C)O)C(=O)N1)[C@@H](C)O)C(=O)N[C@@H](CC(C)C)C(=O)N1CCC[C@H]1C(=O)N1CCC[C@H]1C(=O)N[C@H](C(=O)N[C@@H](CC(N)=O)C(=O)N[C@H](C(=O)NCC(=O)N[C@@H](CO)C(=O)N[C@@H](CC(N)=O)C(=O)N[C@H](C(=O)N[C@@H](Cc1ccc(O)cc1)C(N)=O)[C@@H](C)O)C(C)C)[C@@H](C)O` [Example 1, N-alpha-[(S)-4-Carboxy-4-(19-carboxynonadecanoylamino)butyryl]-[His1,Glu14,His17,Arg18]-pramlintide] ({C20 diacid-γGlu}-HCNTATCATQRLAEFLHRSSNNFGPILPPTNVGSNTY-NH2; disulfide 2-7 (inferred)), the EC50 in data set [1] turned out to be 0.379 nM; in data set [2], 0.0645 nM. In addition, the “ThT pH 4.0 lag time (h)” value in data set [3] (ThT fibrillation assay) is on record as 11 h.
Regarding `CC[C@H](C)[C@H](NC(=O)[C@@H]1CCCN1C(=O)CNC(=O)[C@H](Cc1ccccc1)NC(=O)[C@H](CC(N)=O)NC(=O)[C@H](CC(N)=O)NC(=O)[C@H](CO)NC(=O)[C@H](CO)NC(=O)[C@H](Cc1c[nH]cn1)NC(=O)[C@H](Cc1c[nH]cn1)NC(=O)[C@H](CC(C)C)NC(=O)[C@H](Cc1ccccc1)NC(=O)[C@H](CCC(=O)O)NC(=O)[C@H](C)NC(=O)[C@H](CC(C)C)NC(=O)[C@H](CCCNC(=N)N)NC(=O)[C@H](CCC(N)=O)NC(=O)[C@@H](NC(=O)[C@H](C)NC(=O)[C@@H]1CSSC[C@H](NC(=O)[C@H](Cc2c[nH]cn2)NC(=O)[C@H](Cc2c[nH]cn2)NC(=O)[C@H](Cc2c[nH]cn2)NC(=O)CC[C@H](NC(=O)CCCCCCCCCCCCCCCCCCC(=O)O)C(=O)O)C(=O)N[C@@H](CCCNC(=N)N)C(=O)N[C@@H]([C@@H](C)O)C(=O)N[C@@H](C)C(=O)N[C@@H]([C@@H](C)O)C(=O)N1)[C@@H](C)O)C(=O)N[C@@H](CC(C)C)C(=O)N1CCC[C@H]1C(=O)N1CCC[C@H]1C(=O)N[C@H](C(=O)N[C@@H](CC(N)=O)C(=O)N[C@H](C(=O)NCC(=O)N[C@@H](CO)C(=O)N[C@@H](CC(N)=O)C(=O)N[C@H](C(=O)N[C@@H](Cc1ccc(O)cc1)C(N)=O)[C@@H](C)O)C(C)C)[C@@H](C)O` [Example 22, N-alpha-[(S)-4-Carboxy-4-(19-carboxynonadecanoylamino)butyryl]-His-His-[His1,Arg3,Glu14,His17]-pramlintide] ({C20 diacid-γGlu}-HHHCRTATCATQRLAEFLHHSSNNFGPILPPTNVGSNTY-NH2; disulfide 4-9 (inferred)), the results for the EC50 in data set [1] and in data set [2] were 1.29 nM and 0.261 nM, respectively. Also, the “ThT pH 4.0 lag time (h)” value in data set [3] (ThT fibrillation assay) is 2.7 h.
The like results for `CC[C@H](C)[C@H](NC(=O)[C@@H]1CCCN1C(=O)CNC(=O)[C@H](Cc1ccccc1)NC(=O)[C@H](CC(N)=O)NC(=O)[C@H](CC(N)=O)NC(=O)[C@H](CO)NC(=O)[C@H](CO)NC(=O)[C@H](Cc1c[nH]cn1)NC(=O)[C@H](Cc1c[nH]cn1)NC(=O)[C@H](CC(C)C)NC(=O)[C@H](Cc1ccccc1)NC(=O)[C@H](CCC(=O)O)NC(=O)[C@H](C)NC(=O)[C@H](CC(C)C)NC(=O)[C@H](CCCNC(=N)N)NC(=O)[C@H](CCC(N)=O)NC(=O)[C@@H](NC(=O)[C@H](C)NC(=O)[C@@H]1CSSC[C@H](NC(=O)[C@H](CCCCN)NC(=O)[C@H](CCC(=O)O)NC(=O)CC[C@H](NC(=O)CCCCCCCCCCCCCCCCC(=O)O)C(=O)O)C(=O)N[C@@H](CC(N)=O)C(=O)N[C@@H]([C@@H](C)O)C(=O)N[C@@H](C)C(=O)N[C@@H]([C@@H](C)O)C(=O)N1)[C@@H](C)O)C(=O)N[C@@H](CC(C)C)C(=O)N1CCC[C@H]1C(=O)N1CCC[C@H]1C(=O)N[C@H](C(=O)N[C@@H](CC(N)=O)C(=O)N[C@H](C(=O)NCC(=O)N[C@@H](CO)C(=O)N[C@@H](CC(N)=O)C(=O)N[C@H](C(=O)N[C@@H](Cc1ccc(O)cc1)C(N)=O)[C@@H](C)O)C(C)C)[C@@H](C)O` [Example 42, N-alpha-[(S)-4-Carboxy-4-(17-carboxyheptadecanoylamino)butyryl]-Glu-[Glu14,His17]-pramlintide] ({C18 diacid-γGlu}-EKCNTATCATQRLAEFLHHSSNNFGPILPPTNVGSNTY-NH2; disulfide 3-8 (inferred)) were, in that order, 2.43 nM, 0.135 nM and 7.3 h.
